Measurements published in patent US20240011976A1, “ADDITIVES FOR REDUCING NON-SPECIFIC INTERACTIONS BETWEEN FLUORESCENT POLYMER CONJUGATES AND CELLS IN A BIOLOGICAL SAMPLE” (Beckman Coulter, Inc., priority 2008, published 2024).
“Also recorded” adds a separate entry of the source.

Assays:
monocytes [1] = test: Anionic surfactant NLS, non-specific staining of CD20-SN v605 on monocytes, peripheral blood flow cytometry; type: cell-based; conditions: CD20-SN v605, buffer with BSA, sodium azide and Empigen BB, FIG. 17B
Description: (§1) In this example, different concentrations (0.16%, 0.08%, 0.04% and 0.02% w/v) of NLS was formulated with SN v605 CD20 conjugate in the presence of BSA and sodium azide and stained peripheral blood samples. Flow cytometry was performed following sample staining.

granulocytes [2] = test: Non-specific binding of SN 605-CD20 and SN 786-CD103 conjugate lots to granulocytes with and without EMPIGEN BB (MdFI, dot plots); type: cell-based; conditions: with vs without surfactant (EMPIGEN BB), FIG. 3 and FIG. 6
Description: In order to confirm the effect of EMPIGEN BB®, two lots of SN 605-CD20 conjugates were tested in the presence and absence of EMPIGEN BB®. The mean fluorescence intensity (MFI) was compared to the autofluorescence (negative population median fluorescence intensity (MdFI)) of the monocytes from the unstained sample.
Two lots of SN 786-CD103 conjugates were tested in presence and absence of EMPIGEN BB® and the autofluorescence (negative population MdFI) of the monocyte and granulocyte population is compared against an unstained sample.

monocytes/granulocytes = test: Blood sample stained with unconjugated polymer dye SN v605 with and without Empigen BB, flow cytometry; type: cell-based; conditions: SN v605 without antibody, with EMPIGEN BB, FIG. 2
Description: A blood sample was stained with unconjugated polymer dye SN v605 (without antibody), with and without Empigen BB®, and analyzed in a flow cytometer. […] In FIG. 2, the fluorescent polymer dye SN v605 without antibody was used to stain a blood sample and analyzed in a flow cytometer. […] While not wishing to be bound by any specific theory, it is thought that the polymer is likely adsorbing on the cell surface of monocytes and granulocytes.

[3] = Empigen BB concentration in conjugate formulation and during staining versus CMC; type: physicochemical
Description: The micellar concentration was studied in samples and during the staining to be sure not to exceed critical micellar concentration (CMC). […] CMC was studied in the conjugate formulation and during the staining in 100 μL whole blood. Experiments were conducted to evaluate the impact of addition of EMPIGEN BB® on whole blood cell integrity and also on peripheral blood mononuclear cells (PMBCs).

whole blood cells = test: 7-AAD staining, percentage of dead cells in whole blood; type: cell-based; conditions: up to 0.2% EMPIGEN BB with CD19-SNv428, 7-AAD
Description: The percentage of dead cells in whole blood sample with the 7-AAD was evaluated. 7-AAD is a DNA marker, the staining is positive when the cellular membrane is permeabilized. CD19-SNv428 D19-094 without EMPIGEN BB®@(negative control) and with 0.06%, 0.12%, and 0.2% EMPIGEN BB®, was tested on four donors' whole blood, with the 7-ADD, to evaluate the percentage of dead cells in each condition. The goal of the experiment was to verify if the percentage of dead cells is not increased by the EMPIGEN BB® concentration.
Two whole blood samples that had been preserved for greater than 24 hours were added as positive control of 7-AAD staining.
Protocol for 7-AAD staining: • 100 μl whole blood+10 μl CD19-SNv428+/−Empigen, incubation 20 minutes. • Lyse with Versalyse, one wash, • Resuspension in 500 μl PBS 1× • Add 20 μl of 7-AAD (Ref B88526), incubation 15-20 minutes • Navios flow cytometer acquisition: FL4 for 7-AAD and FL9 for CD19-SNv428

monocytes [4] = test: Monocyte background (non-specific binding) of SN 428 conjugates with EMPIGEN BB, whole blood flow cytometry; type: cell-based; conditions: 0.06 to 0.20% Empigen BB vs absence of surfactant, FIG. 11
Description: (§2) The efficiency of zwitterionic surfactant EMPIGEN BB® on the reduction of non-specific binding with monocytes was evaluated. Other populations were also studied, namely lymphocytes and granulocytes, to evaluate the non-impact of the detergent on MFI and percentage of cells.
(§3) The experimental conditions were generally as follows: • CD19-SN 428 (lot D19-094, polymer lot RDS-042919 (82.7 kD), 1 dose (0.5 μg/test). • CD22-SN 428 (lot D19-109, polymer lot WX-20190624 (86.4 kD), 1 dose (0.5 μg/test). • CD25-SN 428 (lot D19-107, polymer lot RDS-062419 (72.8 kD), 1 dose (0.5 μg/test). • CD19, CD22 and CD25-BV 421 from Becton Dickinson at 1× commercial dose. • Three doses of EMPIGEN BB®0.06%, 0.12%, and 0.2% prepared in conjugate final formulation. • Added 10 μL sample with 100 μL whole blood. • Tested on 2 donors lysing with VersaLyse (lysing solution, used to lyse red blood cells, Beckman Coulter, Inc.)+Fix, one wash. • Navios flow cytometer acquisition on FL9.
(§4) The required x number of tubes were prepared, wherein “x number of tubes” depends on the performance tested. A calculated volume of conjugated antibody (at required dose) was added to each tube. Whole blood (100 μL) was added in each tube. The tubes were gently vortexed for 15 seconds and incubated for 15 to 20 minutes at room temperature at 18-25° C. and protected from light. […]

granulocytes [5] = test: Anionic surfactant NLS, non-specific staining of CD20-SN v605 on granulocytes, peripheral blood flow cytometry; type: cell-based; conditions: CD20-SN v605, buffer with BSA, sodium azide and NLS, FIG. 17B
Description: as §1

positive lymphocytes = test: Positive lymphocyte signal of SN 428 conjugates with EMPIGEN BB, whole blood flow cytometry; type: cell-based; conditions: compared to the condition without EMPIGEN
Description: as §2, §3, §4

[6] = 20-25° C.; cited from earlier work
granulocytes/monocytes = test: Protein blockers, non-specific interactions of SN v605-CD20 conjugate with granulocytes/monocytes; type: cell-based
Description: The issue of non-specific interaction on monocytes was also observed with conventional tandem dyes (e.g., PC5, PC5.5, PC7, AA700 available from Beckman Coulter, Inc.). To overcome this issue, it was thought that BSA-ox (oxidized BSA) and BSA-Cy5-ox (oxidized Cy5-BSA), which are known protein blockers, might prevent non-specific binding.

CCCCCCCCCCCC[N+](C)(C)CC(=O)[O-] [EMPIGEN BB®, N,N-dimethyl-N-dodecylglycine betaine]
% population in the gate Mons Non-specific binding (monocytes [1]): 0.64%
percentage of non-specifically bound granulocytes (dot plot gate) (granulocytes [2]): reduced
non-specific binding of polymer dye to monocytes/granulocytes (monocytes/granulocytes): substantially reduced; also recorded: reduced drastically; also recorded: substantial decrease
concentration relative to CMC, formulation in the vial ([3]; 0.2% in the vial): > CMC within the conjugate formulation
Empigen BB concentration, formulation in the vial ([3]; 0.2%, 2 g/L, 279 g/mol): 7.2 mM
concentration relative to CMC during the staining ([3]; 100 μL WB, 10 μl conjugate): < CMC during the staining
Empigen BB concentration during the staining ([3]; 100 μL WB, 10 μl conjugate, dilution factor 11): 0.65 mM
percentage of dead cells / whole blood cell death (whole blood cells): does not induce whole blood cell permeabilization or death; also recorded: didn't induce whole blood cell death; also recorded: not substantially increased
non-specific monocyte interactions (negative monocyte MFI) (monocytes [4]): lower percent of non-specific monocyte interactions
% population in the gate Grans Non-specific binding (granulocytes [5]): 0.68%
variation of the positive signal on lymphocytes (positive lymphocytes): did not induce a significant variation
CMC [6]: 1.6 to 2.1 mM

BSA-Cy5-ox: oxidized Cy5-BSA, known protein blocker
percentage of non-specifically bound monocytes and granulocytes / controlling non-specific interactions (granulocytes/monocytes; FIG. 10): inefficient; also recorded: not substantially reduced

BSA-ox: oxidized BSA, known protein blocker
percentage of non-specifically bound monocytes and granulocytes / controlling non-specific interactions (granulocytes/monocytes; FIG. 10): inefficient
percentage of non-specifically bound monocytes and granulocytes / controlling non-specific interactions (granulocytes/monocytes; FIG. 10, listed as oxidized BSA): not substantially reduced
